Data set [1] concerns CCRF-CEM human T-cell acute lymphoblastic leukemia cells. The data set is described as follows: In vitro cytotoxicity against CCRF-CEM (XTT / CCK-8 tetrazolium assay, 72 hr). Conditions: for IC50: Homo sapiens, CCRF-CEM. As to the method:
(§1) The cytotoxicity IC50 of each compound was measured with the XTT assay using the 2,3-bis(2-methoxy-4-nitro-5-sulfophenyl)-5-[(phenylamino)carbonyl]-2H-tetrazolium hydroxide (XTT) microculture method as described in Scudiero et al., Cancer Res., 48:4827 (1988), the contents of which are hereby incorporated by reference in their entirety. The CCK-8 assay is a cell counting kit-8 (CCK-8) tetrazolium assay using a 96-well microplate (Dojindo Molecular Technologies, Inc., Rockville, Md.) (M. Ishiyama et al., Biol. Pharm. Bull. 19: 1518, 1996). Absorbance was measured by Powerwave a XS microplate spectrophotometer. This method described is considered a general method in vitro cytotoxicity studies.
(§2) The data in Tables 2X, 3A-E, 4, 5, and 6 were obtained using the cell counting kit-8 (CCK-8) tetrazolium assay in a 96-well microplate. Five to seven concentrations of each compound in triplicate were used, and the IC50 values were determined by CompuSyn software automation (Chou T C. and Martin N. ComboSyn, Inc., 2006) based on the median-effect equation and plot (Chou T C. J. Theor. Biol. 59:235-276, 1976; Chou T C. Pharmacol. Rev. 58: 621-681, 2006). […] The r value defines the correlation coefficient of the median-effect plot which signifies the conformity to the mass-action law principle (Chou T C. J. Theor. Biol. 59:235-276, 1976; Chou T C. Pharmacol. Rev. 58:621-681, 2006). These parameters were determined by CompuSyn simulation (available at http://www.combosyn.com).
(§3) CCRF-CEM human T-cell acute lymphoblastic leukemia cells and the corresponding vinblastine-resistant cells (CCRF-CEM/VBL100) were cultured at an initial density of 5×10^4 cells per milliliter. The cultured cells were maintained in a 5% CO2-humidified atmosphere at 37° C. in RPMI medium 1640 (GIBCO/BRL) containing penicillin (100 units/mL), streptomycin (100 μg/mL, GIBCO/BRL), and 10% heat-inactivated fetal bovine serum. The cytotoxicity of each Compound of the invention was measured using the 2,3-bis(2-methoxy-4-nitro-5-sulfophenyl)-5-[(phenylamino)carbonyl]-2H-tetrazolium hydroxide (XTT) microculture method as described in Scudiero et al., Cancer Res., 48:4827 (1988), the contents of which are hereby incorporated by reference in their entirety.
(§4) Absorbance was measured by Powerwave XS microplate spectrophotometer.
In general terms: Formazan colour is commonly taken as a measure of viable cells.

Data set [2] concerns CCRF-CEM/VBL100 vinblastine-resistant cells. The data set is described as follows: In vitro cytotoxicity against vinblastine-resistant CCRF-CEM subline. Format: cell-based, human. The conditions noted are these: for IC50: Homo sapiens, CCRF-CEM. As to the method:
as §1, §2, §3, §4

The test system of data set [3] is CCRF-CEM subline resistant to TAXOL. The data set is described as follows: In vitro cytotoxicity against TAXOL-resistant CCRF-CEM subline. Conditions: for IC50: Homo sapiens, CCRF-CEM. It counts as cell-based, human. As to the method: as §2, §4
The subject of data set [4] is human lymphoblastic leukemic T-cell growth. The data set is described as follows: Cytotoxic activity relative to stability during storage at −20° C. in DMSO (Table 10). It counts as cell-based. The conditions noted are these: Homo sapiens, CCRF-CEM, 72 h, Table 10, XTT, 72 hr. The text has this:
Without wishing to be bound by theory, the oxidized versions may be active metabolites. This theory provides an explanation of the delayed onset of therapeutic effects seen in the figures herein. The oxidized compounds may be active agents that are formed slowly upon metabolic oxidation. […] The active metabolites may explain the biphasic pharmacological properties of panaxytriol or Compound D that have been observed (FIGS. 9B, C, D; FIGS. 11D, E, F, and FIGS. 12D, E). […] Induction of the phase 2 enzymes may slow oxidation of the compounds (Ng et al., Tetrahedron Letters. 49: 7178-7179 (2008)).

Data set [5] relates to AKR1C2 and AKR1C3 in human neuroblastoma IMR-32 cells. The data set is described as follows: Induction of AKR1C enzymes, coumberone metabolism (Tables 12, 13). Conditions: inducer varied from 50 nM to 60 μM. As to the method: (§5) Compounds were screened for AKR1C enzyme activity as set forth in Halim, M.; Yee, D. J. and Sames, D. J. Am. Chem. Soc. 2008, […], 14123-14128. […] Specifically, coumberone metabolism studies in IMR-32 can be done as follows: Early-passage (<P25) IMR-32 cells were seeded at a density of 4×10^4 cells/well in 96-well dish. They were then treated with the various inducers or DMSO vehicle (0.5% v/v) control. The concentration of each inducer was varied from 50 nM to 60 μM and the cells were incubated with these for either 24 or 48 hours. 72 hours after seeding, the media was removed and 100 μL of experimental media (DMEM without phenol red supplemented with 100 units/ml penicillin, 100 μg/ml streptomycin, 4 mM L-glutamine and 1% charcoal-dextran treated FBS) was added and incubated for 2 hrs. 100 μl more of the experimental media containing Coumberone (final concentration of 5 μM) was then added. The fluorescence of the cell culture medium was recorded on a plate reader MicroMax 384 connected to a Jobin Yvon Fluorolog by detecting fluorescence at 510 nm upon excitation at 385 nm. The reading was taken every 6 hours for 72 hours. Metabolic conversion rate was obtained by measuring the change in fluorescence per hour for the first 36 hours. The relative increase in metabolic rate was calculated by dividing the metabolic conversion rates of cells incubated with the activator compounds with those incubated with DMSO vehicle. […] Fold-induction is the increase metabolic activity of the reporter. […] “None” indicates no observed induction.
The IMR-32 induction assay was run as follows. Early-passage (<P25) IMR-32 cells were seeded at a density of 4×10^4 cells/well in 96-well dish. They were then treated with the various inducers or DMSO vehicle (0.5% v/v) control. The concentration of each inducer was varied from 50 nM to 60 μM and the cells were incubated with these for either 24 or 48 hours. 72 hours after seeding, the media was removed and 100 μL of experimental media (DMEM without phenol red supplemented with 100 units/ml penicillin, 100 μg/ml streptomycin, 4 mM L-glutamine and 1% charcoal-dextran treated FBS) was added and incubated for 2 hrs. 100 μl more of the experimental media containing Coumberone (final concentration of 5 μM) was then added. The fluorescence of the cell culture medium was recorded on a plate reader MicroMax 384 connected to a Jobin Yvon Fluorolog by detecting fluorescence at 510 nm upon excitation at 385 nm. The reading was taken every 6 hours for 72 hours. Metabolic conversion rate was obtained by measuring the change in fluorescence per hour for the first 36 hours. The relative increase in metabolic rate was calculated by dividing the metabolic conversion rates of cells incubated with the activator compounds with those incubated with DMSO vehicle. […] J. Am. Chem. Soc. 2008, 130, 14123-[…].

Data set [6] relates to human neuroblastoma IMR-32 cells. The data set is described as follows: 50% toxicity in the IMR-32 induction assay (Table 12). Format: cell-based. As to the method:
as §5

[7] abbreviates: 72 h, read-out: IC50 CCRF-CEM, Table 3D, CCK-8, 72-hr incubation.
Where [8] appears, read: read-out: IC50 (in μM), cytotoxic potency against cancer cell line growth in vitro, Table 3C, cell line not given.
Where [9] appears, read: 72 h, Table 3D, CCK-8, 72-hr incubation, read-out: IC50 CCRF-CEM/Vinblastine.
Where [10] appears, read: Table 3D, CCK-8, 72-hr incubation, read-out: IC50 CCRF-CEM/TAXOL.
[11] abbreviates: read-out: IC50 CCRF-CEM, Table 3E.
Setting [12] is: Table 3E, read-out: IC50 CCRF-CEM/Vinblastine.
[13] abbreviates: Table 3E, read-out: IC50 CCRF-CEM/TAXOL.

Like-named read-outs stand apart in the source and are kept apart here.

As to `C=C[C@H](C#CC#CC[C@H]1OC(C)(C)O[C@@H]1CCCCCCC)OC(C)=O` [Compound (F)], the IC50 in data set [1] (setting [7]) worked out at 3.88 ± 0.85 µM; in data set [1] (setting [8]), 3.88 µM; in data set [2] (setting [9]), 8.56 µM; in data set [3] (setting [10]), 7.58 µM.

Consider `CCCCCCC[C@H]1OC(C)(C)O[C@@H]1Cc1ccc(C=O)cc1` [Compound (N), 4-(((4R,5R)-5-heptyl-2,2-dimethyl-1,3-dioxolan-4-yl)methyl)benzaldehyde], for which the IC50 amounted to 12.6 µM in data set [1] (setting [11]), 13.6 µM in data set [2] (setting [12]) and 19.4 µM in data set [3] (setting [13]).

As to `C=CC(=O)C#CC#CC[C@H]1OC(C)(C)O[C@@H]1CCCCCCC` [Compound (C)], the “fold resistance in brackets (IC50 CCRF-CEM/VBL vs CCRF-CEM)” value in data set [2] (Table 3) stood at 1.19 x. Besides, the IC50 came out at 2.68 µM in data set [4] (Aug. 22, 2003 (Stored), same solution kept at −20° C. in DMSO, read-out: IC50 in μM CCRF-CEM); 3.9 µM in data set [4] (Aug. 22, 2003 (Stored), same solution kept at −20° C. in DMSO, read-out: IC50 in μM CCRF-CEM/VBL); 0.404 µM in data set [4] (Jul. 25, 2003 (Fresh), read-out: IC50 in μM CCRF-CEM); 0.7 µM in data set [4] (Jul. 25, 2003 (Fresh), read-out: IC50 in μM CCRF-CEM/VBL).

`C=CC(C)(O)C#CC#CC[C@H]1OC(C)(C)O[C@@H]1CCCCCCC` (stereo partly shown) [Compound (G)]: the IC50 in data set [1] (setting [7]) was determined as 3.77 ± 0.48 µM; in data set [1] (setting [8]) it was 3.77 µM; in data set [2] (setting [9]) it was 7.3 µM; in data set [3] (setting [10]), 6.16 µM.

`C=C[C@H](C#CC#CC[C@H]1OC(C)(C)O[C@@H]1CCCCCCC)OC` [Compound (H)]: the IC50 in data set [1] (setting [7]) is 21.6 µM; in data set [1] (setting [8]), 21.6 µM; in data set [2] (setting [9]) it was 26.6 µM; in data set [3] (setting [10]), 15.1 µM.

Turning to `C=CC(O)c1ccc(C[C@H]2OC(C)(C)O[C@@H]2CCCCCCC)cc1` (stereo partly drawn) [Compound (O), 1-(4-(((4R,5R)-5-heptyl-2,2-dimethyl-1,3-dioxolan-4-yl)methyl)phenyl)prop-2-en-1-ol], the values for the IC50 in data set [1] (setting [11]), in data set [2] (setting [12]) and in data set [3] (setting [13]) were 5.25 µM, 6.52 µM and 10.3 µM, respectively.

`CCCCCCC[C@H]1OC(C)(C)O[C@@H]1CC#CC#C/C=C/CO` [Compound (L)]: the IC50 in data set [1] (setting [7]) is 1.92 ± 0.16 µM; in data set [1] (setting [8]), 1.92 µM; in data set [2] (setting [9]), 2.76 µM; in data set [3] (setting [10]) it was 2.91 µM.

Regarding `CCCCCCC[C@H]1OC(C)(C)O[C@@H]1Cc1ccc(C(O)CC)cc1` (stereo partly drawn) [Compound (P), 1-(4-(((4R,5R)-5-heptyl-2,2-dimethyl-1,3-dioxolan-4-yl)methyl)phenyl)propan-1-ol], the IC50 in data set [1] (setting [11]) was determined as 4.18 µM; in data set [2] (setting [12]), 5.14 µM; in data set [3] (setting [13]), 11.9 µM.

For the compound `CC[C@]1(O)C[C@@H]2CN(CCc3c([nH]c4ccccc34)[C@@](C(=O)OC)(c3cc4c(cc3OC)N(C)[C@H]3[C@@](O)(C(=O)OC)[C@H](OC(C)=O)[C@]5(CC)C=CCN6CC[C@]43[C@@H]65)C2)C1` [Vinblastine], the IC50 in data set [1] (72 h, read-out: CCRF-CEM (IC50 in μM), Table 3A-2, CCK-8, 72-hr exposure) came to 0.0011 µM; in data set [2] (72 h, Table 3A-2, CCK-8, 72-hr exposure, read-out: CCRF-CEM/VBL (IC50 in μM)) it was 0.669 µM; in data set [3] (Table 3A-2, CCK-8, 72-hr exposure, read-out: CCRF-CEM/TAXOL (IC50 in μM)), 0.282 µM. Also, the “Fold of resistance (IC50 ratio CCRF-CEM/VBL vs CCRF-CEM)” value in data set [2] (Table 3A-2) is given as 608 fold. In addition, in data set [3] (Table 3A-2), the “Fold of resistance (IC50 ratio CCRF-CEM/TAXOL vs CCRF-CEM)” value turned out to be 256 fold.

As for `CCCCCCC[C@H]1OC(C)(C)O[C@@H]1Cc1nnn(Cc2ccccc2)c1C(O)CC` (stereo partly shown) [Compound 11], the “Fold induction of AKR1C2 and AKR1C3 in IMR-32 cells (result in words)” value in data set [5] was “None”. Moreover, the IC50 in data set [6] (Homo sapiens, IMR-32; read-out: 50% toxicity in IMR-32 cells) was around 35 µM.

Consider `C=C[C@H](C#CC#CC[C@H]1OC(C)(C)O[C@@H]1CCCCCCC)OC(=O)/C=C/c1ccccc1` [Compound (E)], for which the “anti-cancer activity in the in vitro cytotoxicity assay” value in data set [1] is “active against cancer”. The IC50 in data set [1] (setting [7]) worked out at 642 µM; in data set [1] (setting [8]) it was 642 µM; in data set [2] (setting [9]) it was 106 µM; in data set [3] (setting [10]), 156 µM. Moreover, in data set [2] (Table 3D, given as x or -fold), the “fold of cross-resistance (CCRF-CEM/Vinblastine vs parent cell line)” value was determined as 0.17 fold. In data set [3] (Table 3D, given as x or -fold), the “fold of cross-resistance (CCRF-CEM/TAXOL vs parent cell line)” value stood at 0.24 fold.

`C[C@]12COC(=O)[C@@]1(C)[C@H]1O[C@@]3(C)[C@H](O)C[C@@]24OC(=O)CC134` (stereo partly shown) [Compound 32]: the “Fold induction of AKR1C2 and AKR1C3 in IMR-32 cells (result in words)” value in data set [5] is reported as “None”. Further, in data set [6] (Homo sapiens, IMR-32, read-out: 50% toxicity in IMR-32 cells), the IC50 is above 40 µM.

(Values after US8859615B2, “Compounds, compositions and methods for reducing toxicity and treating or preventing diseases” (priority 2008, dated 2014).)
